# Source: patent US20220396840A1, “IRON-SCORE AND IN VITRO METHOD FOR IDENTIFYING MANTLE CELL LYMPHOMA (MCL) SUBJECTS AND THERAPEUTIC USES AND METHODS” (priority 2019, published 2022)
# Read-outs that look alike come from different tables or passages of the source.
# Legend:
# [1] = test system: Cyclin D1, phospho-Rb, CDK4 in Jeko-1 and JVM2 cells; test: Western blot of cyclinD1, phospho-Rb, Rb and CDK4; assay type: cell-based, human; details: 100 nM Jeko-1, 500 nM JVM2, 24H
# Procedure: Jeko-1 and JVM2 cells were treated with Ironomycin (100 nM and 500 nM, respectively) during 24H. Protein levels of cyclinD1, phospho-Rb, Rb and CDK4 were analyzed by western blot and normalized by the β-actin expression level. This Cyclin D1 downregulation is associated with a downregulation of Rb phosphorylation and CDK4 protein levels.
# (§1) The total cell lysates were obtained with RIPA 1× lysis buffer (#9806, Cell Signaling®) according with the supplier recommendations.
# (§2) Protein lysates migrate on 10% polyacrylamide gel (NP-0301, Novex, Life Technologies®), in MOPS 1× running buffer (NP0001, Novex, Life Technologies®) or MES 1× running buffer NP-0002, Novex, Life Technologies®) and proteins are transferred to nitrocellulose membrane (1B301001, I-Blot Transfert Starck, NuPAGE, Life Technologies®). The primary antibodies mouse-anti-phospho-Histone H2A.X (Ser139) clone JBW301 (1/1000, Merck Millipore), rabbit anti-cyclinD1 (#2926, 1/1000, Cell Signaling®), rabbit anti-phospho (S795)-Rb (#9301, 1/1000, Cell Signaling®), mouse anti-Rb (#9309, 1/1000, Cell Signaling®), mouse anti-CDK4 (#2906, 1/1000, Cell Signaling®) were incubated in TBS-Tween 20 0.1% (Tris-Buffered Saline, pH 7.4) with 5% non-fat milk or Bovine serum albumin (Sigma-Aldrich, A7906). Protein levels are objectified by labeling with an anti-β-actin mouse monoclonal antibody (Sigma, A5441, St Louis, Mo., USA 1/1000). Primary antibodies are visualized with secondary anti-rabbit antibodies (Sigma®, A9169) or anti-mouse antibodies (Jackson, 115-036-068) coupled to peroxidase allows the development by chemiluminescence by Western Lightning ECL (NEL121001EA, Perkin Elmer®). Quantification of protein levels was performed with Image J® software (National Institutes of Health, Bethesda, Md., USA).
# Mantle cell lymphoma (MCL) is now recognized as an aggressive B-cell lymphoma with various growth patterns (mantle zone, nodular, or diffuse) and a broad range of cytologic features. […]
# Phospho-H2A.X (S139) = test: Western blot of Phospho-H2A.X (S139), DNA damage response; assay type: cell-based, human; details: 100 nM for Jeko-1 and 500 nM for JVM-2, 24H
# Procedure: Cells were treated with Ironomycin (100 nM for Jeko-1 and 500 nM for JVM-2) during 24H. Protein levels of Phospho-H2A.X (S139) were analyzed by western blot and normalized by β-actin protein level.
# as §1
# as §2, with “Protein levels are objectified by labeling with an anti-β-actin mouse monoclonal antibody (Sigma, A5441, St Louis, Mo., USA 1/1000). Primary antibodies are visualized with secondary anti-rabbit antibodies (Sigma®, A9169) or anti-mouse antibodies (Jackson, 115-036-068) coupled to peroxidase allows the development by chemiluminescence by Western Lightning ECL (NEL121001EA, Perkin Elmer®).” left out
# Protein levels of Phospho-H2A.X (S139) were analyzed by western blot and normalized by β-actin protein level (FIG. 5).
# [2] = test system: non-MCL cells (normal cells from the microenvironment); assay type: cell-based, human
# Procedure: (§3) In a first experiment, primary MCL cells were treated with Ironomycin and incubated during 96H with CD40L. The toxicity on MCL cells (A) and non-MCL cells (B) was analyzed by flow cytometry and expressed in % of control. N=5, Median+/−IQR, t-test of pairs. * P<0.05, ** P<0.01, *** P<0.001, **** P<0.0001.
# (§4) Cells are obtained from lymph nodes or blood of 9 patients with MCL.
# (§5) In a first experiment, primary MCL cells were treated with Ironomycin and incubated during 96H with CD40L. The toxicity on MCL cells (FIG. 7 A) and non-MCL cells (FIG. 7 B) was analyzed by flow cytometry and expressed in % of control.
# JEKO-1 = test: Cell viability assay (CellTiter-Glo, ATP quantification); assay type: cell-based; details: Homo sapiens
# Procedure: (§6) The 6 MCL cell lines (GRANTA-519, JEKO-1, MINO, MAVER-1, JVM-2 and REC-1) were purchased from the DSMZ (Leibniz-Institut DSMZ—Deutsche Sammlung von Mikroorganismen und Zellkulturen GmbH, Germany). They were maintained according to the supplier's recommendations. Cultures were maintained at 37° C. in a humidified atmosphere with 5% CO2.
# (§7) MCL cell lines were cultured for 4 days in 96-well flat-bottom microtiter plates in RPMI 1640 medium or DMEM medium, 10% or 20% FCS (control medium) in the presence of various compounds. The number of viable cells in culture was determined using the CellTiter-Glo Luminescent Cell Viability Assay from Promega, Madison, Wis., USA using a Centro LB 960 luminometer (Berthold Technologies, Bad Wildbad, Germany).
# (§8) This test is based on quantitation of the intracellular ATP present, which signals the presence of metabolically active cells. Data are expressed as the mean percentage of six replicates, normalized to the untreated control.
# (§9) We investigated the therapeutic interest of iron metabolism inhibitors AM5 (Ironomycin) and AM23. The panel of 6 MCL cell lines were incubated with increasing concentrations of Ironomycin (FIG. 2 A), AM23 (FIG. 2 B) or vehicle for 96H (A). Inhibitory concentration 50% (IC50) was calculated with concentration-response curve after treatment with Ironomycin. Cell viability was examined using quantification of ATP assay. Data are expressed as mean percentage+/−SEM of at least three independent experiments performed in sixplicate. Tables 6 and 7 presenting the inhibitory concentration 50% (IC50) of Ironomycin and AM23 for the 6 MCL cell-lines.
# JVM-2 = test: as above; assay type: cell-based; details: Homo sapiens
# Procedure: as §6, §7, §8, §9
# MAVER-1 = test: as above; assay type: cell-based; details: Homo sapiens
# Procedure: as §6, §7, §8, §9
# REC-1 = test: as above; assay type: cell-based; details: Homo sapiens
# Procedure: as §6, §7, §8, §9
# MINO = test: as above; assay type: cell-based; details: Homo sapiens
# Procedure: as §6, §7, §8, §9
# GRANTA-519 = test: as above; assay type: cell-based; details: Homo sapiens
# Procedure: as §6, §7, §8, §9
# Jeko-1 and JVM-2 cells = test: Drug combination concentration matrix, cell viability by ATP quantification, Bliss synergy matrix; assay type: cell-based, human; details: 96 h
# Procedure: Jeko-1 and JVM-2 cells were treated with increasing concentrations of ironomycin combined with ibrutinib (BTK inhibitor) for 96 h and cell viability was tested by ATP quantification to obtain the viability matrix. The synergy matrix was calculated as described in Material and Methods.
# Jeko-1 and JVM-2 cells were treated with increasing concentrations of ironomycin combined with Venetoclax (BCL2 inhibitor) for 96 h and cell viability was tested by ATP quantification to obtain the viability matrix. The synergy matrix was calculated as described in Material and Methods.
# Jeko-1 and JVM-2 cells were treated with increasing concentrations of ironomycin combined with doxorubicin for 96 h and cell viability was tested by ATP quantification to obtain the viability matrix. The synergy matrix was calculated as described in Material and Methods.
# The interaction between the drugs tested in vitro was investigated with a concentration matrix test, in which increasing concentration of each single drug were assessed with all possible combinations of the other drugs. For each combination, the percentage of expected growing cells in the case of effect independence was calculated according to the Bliss equation (Combes et al., 2019): […]
# where fuC is the expected fraction of cells unaffected by the drug combination in the case of effect independence, and fuA and fuB are the fractions of cells unaffected by treatment A and B, respectively. The difference between the fraction of living cells in the cytotoxicity test and the fuC value was considered as an estimation of the interaction effect, with positive values indicating synergism and negative values antagonism.
# Synergy matrix was built with the R package “SynergyFinder”.
# [3] = test system: Jeko-1 and JVM-2 MCL cell lines; details: deferasirox 80 μM, Ironomycin 50 nM and 500 nM, 72H
# Procedure: Jeko-1 and JVM2 cell line was pre-incubated with or without 80 μM of deferasirox or 50 nM and 500 nM of Ironomycin, respectively, for 4 hours followed by 72H incubation in presence or absence of FeCl3 (100 μM). Apoptosis was assessed using Annexin V-PE staining by flow cytometry.
# AnnexinV-PE staining for apoptosis analysis was performed using the “PE Annexin V Apoptosis Detection Kit I” (559763, Becton Dickinson).
# The inventors further investigated the effect of Iron supplementation on the cell death induced by these treatments. Iron chelator (Deferasirox) concentrations were chosen according the maximal plasmatic concentration achievable in the patient (Nisbet-Brown et al., 2003).
# primary MCL cells = test: Primary MCL cells of patients cultured with CD40L, flow cytometry; assay type: cell-based, human
# Procedure: as §3
# These first results were further completed by additional experiments: primary MCL cell were treated with Ironomycin (C) or AM-23 (D) and incubated during 96H with recombinant CD40L.
# Results represent the median±IQR of each population cells of nine (C) and six patients (D), respectively. Statistical significance was tested using t-test of pairs: * P<0.05, ** P<0.01 *** P<0.001, **** P<0.0001 and NS: non-significant.
# as §4, §5
# The toxicity on MCL cells was analyzed by flow cytometry and expressed in % of control.
# [4] = test system: Jeko-1 and JVM-2 cell lines; test: Cell cycle analysis by flow cytometry (BrdU/DAPI); assay type: cell-based, human; details: IC50 Ironomycin for 24 hours
# Procedure: Cells were incubated with vehicle or with IC50 Ironomycin for 24 hours.
# The cell cycle progression was studied by flow cytometry using the Apoptosis, DNA Damage, and Cell Proliferation Kit (562253, Becton Dickinson). Briefly, cells were labeled with bromodeoxyuridine (BrdU), an analog of the DNA precursor thymidine that can be incorporated into newly synthesized DNA and detected with an antibody against BrdU to measure cell proliferation. After this labeling, the cells were fixed, permeabilized and treated with DNase to expose the BrdU epitopes. Following this treatment, cells were simultaneously stained with fluorochrome-labeled anti-BrdU, anti-cleaved Poly ADP-ribose polymerase 1 (PARP), anti-H2AX phosphorylated at serine 139. They were also stained with DAPI to determine DNA content. Finally, cells were resuspended in staining buffer and analyzed by flow cytometry (Fortessa, Becton Dickinson).
# Cells were incubated with vehicle or with IC50 Ironomycin for 24 hours. […] (FIG. 4)
# [5] = test system: hematopoietic progenitors
# [6] = Homo sapiens, 96 h, read-out: reduction of the median number of viable primary MCL cells
structure (smiles),measurement,setting,value
C#CCN[C@@H]1C=C[C@]2(O[C@H]([C@@H](CC)C(=O)[C@@H](C)[C@@H](O)[C@H](C)[C@@H]3O[C@@H]([C@@H](CC)C(=O)O)CC[C@@H]3C)[C@@H](C)C[C@H]2C)O[C@@]12CC[C@@](C)([C@H]1CC[C@](O)(CC)[C@H](C)O1)O2 [Ironomycin],CDK4 protein levels,[1],downregulation
same,Cyclin D1 protein level,[1],significant downregulation
same,RB phosphorylation,[1],downregulation
same,DNA damage response (Serine 139 phosphorylation of H2A.X),Phospho-H2A.X (S139),induces DNA damage response
same,toxicity for non-tumor cells from the microenvironment,[2],without major toxicity
same,toxicity in MCL cells compared to normal cells from the microenvironment,[2],higher toxicity in MCL cells compared to normal cells
same,IC50,"JEKO-1; JEKO-1, 96H incubation, cell viability by ATP, read-out: IC50",12.8 nM
same,IC50,"JVM-2; JVM-2, 96H incubation, cell viability by ATP, read-out: IC50",139 nM
same,IC50,"MAVER-1; Maver1, MAVER-1, 96H incubation, cell viability by ATP, read-out: IC50",50.5 nM
same,IC50,"REC-1; Rec1, REC-1, 96H incubation, cell viability by ATP, read-out: IC50",53.4 nM
same,IC50,"MINO; 96H incubation, cell viability by ATP, read-out: IC50",54.4 nM
same,IC50,"GRANTA-519; GRANTA-519, 96H incubation, cell viability by ATP, read-out: IC50",802 nM
same,interaction effect in combination with Doxorubicin,Jeko-1 and JVM-2 cells,synergistic effect
same,interaction effect in combination with Ibrutinib (BTK inhibitor),Jeko-1 and JVM-2 cells,synergistic effect
same,interaction effect in combination with Venetoclax (Bcl2 inhibitor),Jeko-1 and JVM-2 cells,synergistic effect
same,apoptosis monitored by Annexin V staining,[3],induces apoptosis
same,median number of viable primary MCL cells (first experiment),"primary MCL cells; 20 nM, 50 nM and 100 nM, 96H with CD40L, N=5",significantly reduced
same,cytotoxicity at 0.02 µM,primary MCL cells; [6],30%
same,cytotoxicity at 0.05 µM,primary MCL cells; [6],46%
same,cytotoxicity at 0.1 µM,primary MCL cells; [6],53%
same,cell cycle,[4],induces MCL cell cycle defect
same,toxicity on hematopoietic progenitors,[5],low toxicity
CC[C@@H](C(=O)[C@@H](C)[C@@H](O)[C@H](C)[C@@H]1O[C@@H]([C@@H](CC)C(=O)O)CC[C@@H]1C)[C@H]1O[C@]2(C=C[C@@H](NC3CC3)[C@]3(CC[C@@](C)([C@H]4CC[C@](O)(CC)[C@H](C)O4)O3)O2)[C@H](C)C[C@@H]1C [AM-23],IC50,"JEKO-1; JeKo-1, 96 h",8 nM
same,IC50,"JVM-2; JVM-2, 96 h",58 nM
same,IC50,"MAVER-1; Maver1, 96 h",17.3 nM
same,IC50,"REC-1; Rec1, 96 h",6.8 nM
same,IC50,MINO; 96 h,43 nM
same,IC50,"GRANTA-519; Granta-519, 96 h",845 nM
same,cytotoxicity at 0.01 µM,primary MCL cells; [6],34%
same,cytotoxicity at 0.02 µM,primary MCL cells; [6],58%
same,cytotoxicity at 0.05 µM,primary MCL cells; [6],60%
same,cytotoxicity at 0.1 µM,primary MCL cells; [6],64%
